Laboratory results reported in patent US20120046363A1, “DOCOSAHEXAENOIC ACID FOR THE TREATMENT OF HEART FAILURE” (University of Maryland, Baltimore, priority 2009, published 2012).

Assays:
[1] = Rat abdominal aortic constriction (banding) pressure overload model of HF; format: in vivo, male Wistar rats; conditions: rats with aortic banding; ALA from flaxseed oil
Excerpt: A dose-response study was completed with EPA+DHA from fish oil using the rat abdominal aortic constriction pressure overload model of HF. In this model a permanent band is tied around the supra-renal abdominal aorta of male Wistar rats (˜200 g) by placing a blunt needle (20G) along the aorta and tying a 3-0 silk suture around both the aorta and the needle. The needle is removed, leaving the diameter of the aortic lumen determined by the diameter of the needle. The increase in aortic pressure results in progressive LV hypertrophy, mitochondrial dysfunction and decreased activity of mitochondrial enzymes, and LV dilation and contractile dysfunction and thus HF^2, 207-213.
Rats were subjected to abdominal aortic banding and assigned them to 12 wks of treatment with either a standard chow or chow supplemented with EPA+DHA from fish oil at either 0.7, 2.3 or 7% of the total energy intake, with an EPA/DHA ration at a 30/70 mix, respectively. These doses correspond to estimated human doses of 1.6, 5.1 and 15.6 g/day (calculated assuming an energy intake of 2000 kcals/day in humans, and 9 kcals/g of EPA+DHA), thus we spanned both sides of the FDA approved human dose of 3.4 g/day. […] There were no differences in body mass or heart rate among groups. LV mass was 37% greater in the banded rats compared to sham on the standard diet. […]

[2] = mammalian cells; cited from earlier work
[3] = similar patient population to GISSI-HF; cited from earlier work

SMILES | cardiomyocyte apoptosis with supplementation [1] | conversion of ALA to EPA [2] [%] | beneficial effect in HF patients [3]
CC/C=C\C/C=C\C/C=C\CCCCCCCC(=O)O [ALA, α-linolenic acid] | less apoptosis | ~10 | 
CC(C)c1nc(N(C)S(C)(=O)=O)nc(-c2ccc(F)cc2)c1/C=C/[C@@H](O)C[C@@H](O)CC(=O)O [rosuvastatin] |  |  | no beneficial effect
